Reference: ChEMBL document CHEMBL4014283, “Structural insights of SmKDAC8 inhibitors: Targeting Schistosoma epigenetics through a combined structure-based 3D QSAR, in vitro and synthesis strategy” (Bioorg Med Chem, 2017)
The source made the active and inactive calls. The rule behind the calls is not given here.

Tests used:
[1] = molecular target: T1, Histone deacetylase 8 (Schistosoma mansoni) (UniProt A5H660); assay: Inhibition of Schistosoma mansoni KDAC8 at 30 uM using (FAM)-labeled peptide as substrate after 60 mins by microfluidic assay
T1 sequence (whole entry): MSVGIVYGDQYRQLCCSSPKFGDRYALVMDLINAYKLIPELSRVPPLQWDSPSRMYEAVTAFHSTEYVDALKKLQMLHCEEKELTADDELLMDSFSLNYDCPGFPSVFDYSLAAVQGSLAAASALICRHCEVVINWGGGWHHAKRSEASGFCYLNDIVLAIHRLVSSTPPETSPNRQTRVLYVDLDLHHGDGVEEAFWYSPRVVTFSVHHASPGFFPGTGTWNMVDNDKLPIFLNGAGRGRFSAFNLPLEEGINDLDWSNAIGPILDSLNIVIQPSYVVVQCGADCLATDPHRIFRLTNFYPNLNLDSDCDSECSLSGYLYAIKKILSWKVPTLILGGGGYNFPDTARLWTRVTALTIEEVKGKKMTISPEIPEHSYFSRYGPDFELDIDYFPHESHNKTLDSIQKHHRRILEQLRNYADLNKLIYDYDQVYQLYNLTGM

[2] = molecular target: T2, Histone deacetylase 8 (Schistosoma mansoni, UniProt A5H660); assay: Inhibition of Schistosoma mansoni KDAC8 using (FAM)-labeled peptide as substrate after 60 mins by microfluidic assay
T2 sequence (A5H660 whole entry): T1 sequence (whole entry)

Structure (SMILES) | inhibition [1] | IC50 ([2]; read-out: IC50) [µM] | IC50 ([2]; read-out: pIC50 (converted)) [µM] | pIC50 [2]
CC(C)(C)OC[C@@H]1N=C(c2ccccc2)c2ccccc2N(CCCCC(=O)NO)C1=O | 15.7% | > 30 |  | 
O=C(O)CCCCN1C(=O)[C@H](CCC(=O)O)N=C(c2ccccc2)c2ccccc21 | 0% | > 30 |  | 
CC(C)(C)OC(=O)CC[C@@H]1N=C(c2ccccc2)c2ccccc2N(CCCCC(=O)NO)C1=O | 24.9% | > 30 |  | 
CCC(C)[C@@H]1N=C(c2ccccc2)c2ccccc2N(CCCCC(=O)NO)C1=O (single isomer, unassigned) | 11.7% | > 30 |  | 
O=C(C[C@@H]1N=C(c2ccccc2)c2ccccc2NC1=O)NO | 0% | > 30 |  | 
O=C(CCCCN1C(=O)[C@@H](CS)N=C(c2ccccc2)c2ccccc21)NO | 57% | 20.9 |  | 
CN(C)Nc1cccc(C(=O)NO)c1 |  |  | 1.58 | 
CC[C@H](C)[C@@H]1N=C(c2ccccc2)c2ccccc2NC1=O | 0% | > 30 |  | 
N=C(N)NCCC[C@@H]1N=C(c2ccccc2)c2ccccc2N(CCCCC(=O)NO)C1=O | 23.5% | > 30 |  | 
O=C(CCCCN1C(=O)[C@H](CC(=O)NO)N=C(c2ccccc2)c2ccccc21)NO | 5.21% | > 30 |  | 
O=C(O)CCCCN1C(=O)[C@H](CC(=O)NC(c2ccccc2)(c2ccccc2)c2ccccc2)N=C(c2ccccc2)c2ccccc21 | 0% | > 30 |  | 
O=C(CS)NCCCCCC(=O)Nc1ccccc1 |  |  | 50.1 | 
O=C(O)CC[C@@H]1N=C(c2ccccc2)c2ccccc2NC1=O | 0% | > 30 |  | 
O=C(CCCCN1C(=O)[C@H](CC(=O)NC(c2ccccc2)(c2ccccc2)c2ccccc2)N=C(c2ccccc2)c2ccccc21)NO | 52.3% | 26.3 |  | 
CC(C)(C)OC(=O)n1c(C[C@@H]2N=C(c3ccccc3)c3ccccc3N(CCCCC(=O)NO)C2=O)cc2ccccc21 | 12.5% | > 30 |  | 
C[C@@H](O)[C@@H]1N=C(c2ccccc2)c2ccccc2N(CCCCC(=O)NO)C1=O | 0.91% | > 30 |  | 
CC(/C=C/C(=O)NO)=C\[C@@H](C)C(=O)c1ccc(N(C)C)cc1 [TRICHOSTATIN] |  | 3.62 |  | 
O=C(CCCCCCC(=O)Nc1cccc(C(=O)O)c1)NO |  |  | 1.91 | 
CN1CCc2c(c3ccccc3n2Cc2ccc(C(=O)NO)cc2)C1 [TUBASTATIN A] |  |  | 1.48 | 

Structure (SMILES) | inhibition [1] | IC50 ([2]; read-out: IC50) [µM] | IC50 ([2]; read-out: pIC50 (converted)) [µM] | pIC50 [2]
Nc1ccccc1NC(=O)c1ccc(-c2cn(CCc3ccsc3)nn2)cc1 | inactive | > 30 |  | 
CC(C)[C@@H]1NC(=O)[C@H]2CCCN2C(=O)[C@@H]2CCCN2C(=O)C[C@@H](C(=O)NCCCC(=O)NO)NC1=O | 21 to 31.9% | > 30 |  | 
COC(=O)CCCCN1C(=O)[C@@H](CSC(C)(C)C)N=C(c2ccccc2)c2ccccc21 | 0% | > 30 |  | 
O=C(CCCCCN1C(=O)c2cccc3cccc(c23)C1=O)NO |  | 1.77 |  | 
O=C(CC[C@H]1N=C(c2ccccc2)c2ccccc2NC1=O)NO | 24% | > 30 |  | 
Cc1c(C)c(S(=O)(=O)NC(=N)NCCC[C@@H]2N=C(c3ccccc3)c3ccccc3N(CCCCC(=O)NO)C2=O)c(C)c2c1OC(C)(C)C2 | 0% | > 30 |  | 
O=C(CC[C@@H]1N=C(c2ccccc2)c2ccccc2NC1=O)NO | 25.9% | > 30 |  | 
COc1ccc(Cn2ccc3ccc(C(=O)NO)cc32)cc1 |  |  |  | 1.03 to 6.36
O=C(CCCNC(=O)CC[C@@H]1N=C(c2ccccc2)c2ccccc2NC1=O)NO | 81.7% | 6.53 |  | 
CCCCCC(=O)NO |  |  | 2.51 | 
N[C@H](Cc1ccc(Cl)cc1Cl)C(=O)N1Cc2ccccc2C1 |  | 29.1 |  | 
Cn1cc(C2=C(c3cn(CCCCCC(=O)NO)c4ccccc34)C(=O)NC2=O)c2ccccc21 |  |  | 1.41 | 
O=C(NO)c1cccc(NN(Cc2ccccc2)Cc2ccccc2)c1 |  |  | 9.33 | 
O=C(NO)C1CCN(S(=O)(=O)c2ccc3c(c2)CCC3)CC1 |  |  | 3.02 | 
CN(C)c1ccc(C(=O)NCC2CCC(C(=O)NO)CC2)cc1 (centres undefined) |  |  | 12 | 
C[C@H]1Sc2ccc(C(=O)NO)cc2NC1=O |  |  | 1.48 | 
O=C(NO)c1sc2ccccc2c1Cl |  |  | 4.37 | 
COC(=O)[C@H](Cc1ccccc1)NC(=O)CCCCCCCCC(=O)NO |  |  | 0.794 | 
CN(C)c1ccc(C(=O)NCc2ccc(C(=O)NO)cc2)cc1 |  |  | 2.88 | 
